Experimental data as given in patent US12624004B2 (Fudan University, priority 2019, dated 2026).
Where a name gives a salt, the structure may show the parent alone. Read-outs that look alike come from different tables or passages of the source.

Key:
κ opioid receptor = target: T1, κ opioid receptor (Homo sapiens, UniProt P41145); assay: Competition binding assay on membranes of CHO cells expressing κ opioid receptor, [3H]-labeled ligand; details: for Ki: read-out: κOR Ki
T1 construct: expressed in transfected cells; host or cells: CHO cells (membranes)
Protocol: (§1) CHO cells expressing p opioid receptor, δ opioid receptor and κ opioid receptor were cultured in 10 cm^2 culture dishes (F-12 medium+10% neonatal bovine serum) for several days, and the culture fluid was aspirated after the cells had grown to the bottom of the dishes; 3 ml of PBS/EDTA solution (0.1M NaCl, 0.01M NaH2PO4, 0.04% EDTA) was added to digest the cells for 3-5 min. Add ice-cold homogenate (50 mM HEPES PH 7.4, 3 mM MgCl, 1 mM EGTA) to the centrifuge tube, transfer the solution and sediment to a homogenizer and homogenize; then transfer the homogenate to a centrifuge tube and centrifuge at 18000 rpm. Centrifuge for 15 min, two times; the obtained precipitate was homogenized with appropriate amount of 50 mM Tris-HCl, pH 7.4 buffer and divided into centrifuge tubes and stored at −70° C. in the refrigerator until use.
(§2) The total binding tube was spiked with 20-30 μg of the expressed membrane receptor protein and […] ligand (1-2 nM), the corresponding non-specific binding tube was spiked with 1 μM of the corresponding ligand, and the sample tubes were spiked with various screened opioid ligands in a final volume of […], incubated at 30° C. for 30 min, and the reaction was terminated in ice water. […] The samples were filtered under negative pressure through GF/C (whatman) glass fiber filter paper on a Millipore sample collector. The reaction was rinsed three times with 4 ml of 50 mMV Tris-HCl (pH 7.4), the filter paper was dried and placed in 0.5 ml Eppendorf tubes with 0.5 ml of lipophilic scintillation solution, the radioactivity was measured by PERKIN ELMER PRI-CARB 2910 liquid scintillation counter and the inhibition rate was calculated. Inhibition rate (or binding rate)=(total binding rate dpm−sample tube dpm)/(total binding tube dpm−non-specific binding tube dpm)×100%
(§3) IC50 was calculated using Prism 5.0 software. the Ki value was calculated as follows, Ki=IC50/(1+[IL]/Kd), [lL] is the concentration of the added labeled ligand and Kd is the equilibrium dissociation parameter of the labeled ligand.
(§4) CHO cells expressing p opioid receptor, δ opioid receptor and κ opioid receptor were cultured in a 10 cm^2 culture dish (F-12 medium+10% neonatal bovine serum) for several days, and the culture fluid was aspirated after the cells grew to the bottom of the dish. 3 mL PBS/EDTA solution (0.1 M NaCl, 0.01 M NaH2PO4, 0.04% EDTA) was added to digest the cells for 3˜5 min, blew with a pipette to completely dislodge the cells. The cells were collected in a 40 mL centrifuge tube, centrifuged at 5000 rpm for 5 min. The supernatant was removed and the ice-cold homogenate (50 mM HEPES pH 7.4, 3 mM MgCl2, 1 mM EGTA) was added to the centrifuge tube. The solution and the precipitate were transferred to a homogenizer. Then the homogenate was transferred to a centrifuge tube and centrifuged at 18000 rpm for 15 min. The precipitate was centrifuged twice at 18000 rpm for 15 min. The obtained precipitate was homogenized by adding appropriate amount of 50 mM Tris-HCl, pH 7.4 buffer and divided into centrifuge tubes and stored at −70° C. in the refrigerator until use.
(§5) The total binding tube was added with 20-30 μg of expressed membrane receptor protein and [3H]-labeled ligand (1-2 nM). The corresponding non-specific binding tube was added with 1 μM of the corresponding ligand, and the sample tubes were added with various screened opioid ligands in a final volume of 100 μL. All of them were incubated for 30 min at 30° C., and the reaction was terminated in ice water. The samples were filtered under negative pressure through GF/C (Whatman) glass fiber filter paper on a Millipore sample collector. The reaction was rinsed three times with 4 mL of 50 mM Tris-HCl (pH 7.4), the filter paper was dried and placed in 0.5 mL Eppendorf tubes with 0.5 mL of lipophilic scintillation solution. […]

δ opioid receptor = target: T2, δ opioid receptor (Homo sapiens, UniProt P41143); assay: Competition binding assay on membranes of CHO cells expressing δ opioid receptor, [3H]-labeled ligand; details: for Ki: read-out: δOR Ki
T2 construct: expressed in transfected cells; host or cells: CHO cells (membranes)
Protocol: as §1, §2, §3, §4, §5

Female mice = assay: In vivo hot plate method analgesia test; details: intraperitoneal; for % MPE @ 10 mg/kg: Table 3-2, hot plate 55° C.; for Maximum percentage effective analgesia (% MPE): Table 5-2, hot plate 55° C.; for % MPE @ 10 mg/kg / Maximum percentage effective analgesia (% MPE): 10 mg/kg dose; for % MPE (5 mg/kg): Table 2-2, hot plate 55° C.
Protocol: Female mice weighing about 20 g were placed on a hot plate apparatus preheated to 55° C., and the latency of the hindfoot response of the mice was used as the pain threshold indicator. Animals were screened before the experiment, and those with response latency less than 5 s or more than 30 s were excluded. To prevent foot scalding, the maximum observation time was set at 60 s. The basal pain threshold was the average of two measurements, with a 5-min interval between measurements. pain thresholds were measured at 15 m, 30 m, 60 m and 120 m after intraperitoneal injection in each group of mice. The percentage effective analgesia (% MPE) was calculated according to the following formula: percentage effective analgesia (% MPE) (post-dose latency−pre-dose latency)/(60−pre-dose latency)×100%. ED50 values were calculated based on the effective percentage of analgesia using the software Graphpad prism 5.0 software.
(§6) Female mice weighing about 20 g were placed on a hot plate apparatus preheated to 55° C., and the latency of the hindfoot response of the mice was used as the pain threshold indicator. Animals were selected before the experiment, and those with response latency less than 5 s or greater than 30 s were excluded. To prevent foot scalding, the maximum observation time was set at 60 s. The basal pain threshold was the average of two measurements, with a 5-min interval between measurements. pain thresholds were measured at 15 min, 30 min, 60 min and 120 min after intraperitoneal administration in each group of mice. The percentage of analgesic effectiveness (% MPE) was calculated according to the following equation. Percentage of effective analgesia (% MPE)_(Pre-dose incubation period−Incubation period after drug administration)/(60-Pre-dose incubation period)×100%. ED50 values were calculated based on the effective percentage of analgesia using GraphPad prism 5.0 software.
as §6, with “were screened” for “were selected”, “measurements. Pain” for “measurements. pain”, “following formula.” for “following equation. Percentage of effective analgesia (% MPE)_(Pre-dose incubation period−Incubation period after drug administration)/(60-Pre-dose incubation period)×100%. ED50 values were calculated based on the effective percentage of analgesia using GraphPad prism 5.0 software.”
ED50 values were calculated based on the effective percentage of analgesia using Graphpad Prism 5.0.
Female mice weighing about 20 g were placed on a hot plate apparatus preheated to 55° C., and the latency of the hindfoot response of the mice was used as the pain threshold indicator. Animals were screened before the experiment, and those with response latency less than 5 s or more than 30 s were excluded. To prevent foot scalding, the maximum observation time was set at 60 s. The basal pain threshold was the average of two measurements, with a 5-min interval between measurements. pain thresholds were measured at 15 min, 30 min, 60 min and 120 min after intraperitoneal administration in each group of mice. The analgesic effective percentage (% MPE) was calculated according to the following formula: analgesic effective percentage (% MPE)=(latency after drug administration−latency before drug administration)/(60−latency before drug administration)×100%. ED50 values were calculated based on the effective percentage of analgesia using the software Graphpad prism 5.0.
Female mice weighing about 20 g were placed on a hot plate apparatus preheated to 55° C. and the latency of the hindfoot response was used as an indicator of pain threshold. […]

μ opioid receptor = target: T3, μ opioid receptor (Homo sapiens, UniProt P35372); assay: Competition binding assay on membranes of CHO cells expressing μ opioid receptor, [3H]-labeled ligand; details: for Ki: read-out: μOR Ki
T3 construct: expressed in transfected cells; host or cells: CHO cells (membranes)
Protocol: as §1, §2, §3, §4, §5

[1] = 0.5 h, Table 3-1, 1 μM concentration of compounds, read-out: κOR Binding rate (%)
[2] = 0.5 h, Table 3-1, 1 μM concentration of compounds, read-out: δOR Binding rate (%)
[3] = Table 3-1, 1 μM concentration of compounds, read-out: μOR Binding rate (%)
[4] = 0.5 h, Table 2-1, 1 μM concentration of compound, read-out: κOR Binding rate (%)
[5] = 0.5 h, Table 2-1, 1 μM concentration of compound, read-out: δOR Binding rate (%)

| Structure (SMILES) | inhibition at 1 µM (κ opioid receptor; [1]) [%] | inhibition at 1 µM (δ opioid receptor; [2]) [%] | % MPE @ 10 mg/kg (Female mice) [%] | inhibition at 1 µM (μ opioid receptor; [3]) [%] | Maximum percentage effective analgesia (% MPE) (Female mice) [%] | inhibition at 1 µM (κ opioid receptor; [4]) [%] | inhibition at 1 µM (δ opioid receptor; [5]) [%] | also measured |
| --- | --- | --- | --- | --- | --- | --- | --- | --- |
| COc1cccc(C2(O)CCN(C(=O)NC(C)C34CC5CC(CC(C5)C3)C4)CC2CN(C)C)c1.Cl [FWBF15, N-(1-((3R,5R,7R)-adamantan-1-yl)ethyl)-3-((dimethylamino)methyl)-4-hydroxy-4-(3-methoxyphenyl)piperidine-1-carboxamide hydrochloride] | 10.4 ± 10.2 | 0 | 22.07 | 32.8 ± 5.5 |  |  |  |  |
| COc1cccc(C2(O)CCN(C(=O)Cn3ccc4ccccc43)CC2CN(C)C)c1.Cl (stereo not shown) [FWBE14, 1-(3-((Dimethylamino)methyl)-4-hydroxy-4-(3-methoxyphenyl)piperidin-1-yl)-2-(1H-indol-1-yl)ethyl-1-one hydrochloride] |  |  |  |  | 54.23 |  |  | Ki (κ opioid receptor; Table 5-1): 4060 ± 382 nM; Ki (δ opioid receptor; Table 5-1): 1180 ± 220 nM; Ki (μ opioid receptor; Table 5-1): 72.9 ± 0.1 nM |
| COc1cccc(C2(O)CCN(S(=O)(=O)c3ccccc3)CC2CN(C)C)c1.Cl (stereo not shown) [FWBH16, 3-((Dimethylamino)methyl)-4-(3-methoxyphenyl)-1-(phenylsulfonyl)piperidin-4-ol hydrochloride] |  |  |  |  |  | 32.6 ± 0.55 | 40.5 ± 1.66 | % MPE (5 mg/kg) (Female mice; 5 mg/kg dose): 100%; Ki (μ opioid receptor; Table 2-1): 87.7 ± 9.37 nM |
| COc1cccc(C2(O)CCN(S(=O)(=O)Cc3ccc(C(F)(F)F)cc3)CC2CN(C)C)c1.Cl (stereo not shown) [FWBH17, 3-((Dimethylamino)methyl)-4-(3-methoxyphenyl)-1-((4-(trifluoromethyl)benzyl)sulfonyl) piperidin-4-ol hydrochloride] |  |  |  |  |  | 25.4 ± 5.93 | 29.3 ± 1.66 | % MPE (5 mg/kg) (Female mice; 5 mg/kg dose): 48.32%; Ki (μ opioid receptor; Table 2-1): 261 ± 35.3 nM |
| COc1cccc(C2(O)CCN(S(=O)(=O)Cc3cccc(Cl)c3)CC2CN(C)C)c1.Cl (stereo not shown) [FWBH7, 1-((3-Chlorobenzyl)sulfonyl)-3-((dimethylamino)methyl)-4-(3-methoxyphenyl)piperidin-4-ol hydrochloride] |  |  |  |  |  | 0 | 28.8 ± 0.04 | ED50 (Female mice; Mus musculus, ip, Table 2-2, hot plate): 1.58 mg/kg; inhibition at 1 µM (μ opioid receptor; Table 2-1, 1 μM concentration of compound, read-out: μOR Binding rate (%)): 21.9 ± 2.4% |
| COc1cccc(C2(O)CCN(C(=O)Cn3cnnn3)CC2CN(C)C)c1.Cl (stereo not shown) [FWBE7, 1-(3-((Dimethylamino)methyl)-4-hydroxy-4-(3-methoxyphenyl)piperidin-1-yl)-2-(1H-tetrazol-1-yl)ethyl-1-one hydrochloride] |  |  |  |  | 12.0 |  |  | inhibition at 1 µM (κ opioid receptor; 0.5 h, Table 5-1, 1 μM concentration of compound, read-out: κOR Combination rate (%)): 22.9 ± 0.6%; inhibition at 1 µM (δ opioid receptor; 0.5 h, Table 5-1, 1 μM concentration of compound, read-out: δOR Combination rate (%)): 8.9 ± 2.4%; inhibition at 1 µM (μ opioid receptor; 0.5 h, Table 5-1, 1 μM concentration of compound, read-out: μOR Combination rate (%)): 0% |
| COc1cccc(C2(O)CCN(C(=O)N(C)c3cccc(Cl)c3)CC2CN(C)C)c1.Cl (stereo not shown) [FWBF3, N-(3-Chlorophenyl)-3-((dimethylamino)methyl)-4-hydroxy-4-(3-methoxyphenyl)-N-methylpiperidine-1-carboxamide hydrochloride] | 14 ± 9.7 | 0 | 3.36 | 8.7 ± 3.7 |  |  |  |  |
| COc1cccc(C2(O)CCN(C(=O)Nc3ccc(F)c(Cl)c3)CC2CN(C)C)c1 (stereo not shown) [FWBF9, N-(3-chloro-4-fluorophenyl)-3-((dimethylamino)methyl)-4-hydroxy-4-(3-methoxyphenyl) piperidine-1-carboxamide hydrochloride] | 7.1 ± 5 | 21.6 ± 13.4 | 18.15 | 25 ± 13.3 |  |  |  |  |
| COc1cccc(C2(O)CCC(N(C)S(=O)(=O)c3cccs3)CC2CN(C)C)c1.Cl (stereo not shown) [N-(3-((Dimethylamino)methyl)-4-hydroxy-4-(3-methoxyphenyl)cyclohexyl)-N-methylthiophene-2-sulfonamide hydrochloride] |  |  |  |  |  |  |  | inhibition at 10 µM (κ opioid receptor; 0.5 h, Table 1-1, 10 μM concentration of compound, read-out: κOR Binding rate (%)): 51.4 ± 7.5%; inhibition at 10 µM (δ opioid receptor; 0.5 h, Table 1-1, 10 μM concentration of compound, read-out: δOR Binding rate (%)): 0%; Maximum percentage effective analgesic (% MPE) (Female mice; Table 1-2, hot plate 55° C., 5 mg/kg dose): 14.3%; inhibition at 10 µM (μ opioid receptor; Table 1-1, 10 μM concentration of compound, mean ± SD of three measurements, read-out: μOR Binding rate (%)): 62 ± 6.8% |
| COc1cccc(C2(O)CCN(C(=O)C3(c4ccccc4)CC3)CC2CN(C)C)c1.Cl (stereo not shown) [FWBE24, (3-((Dimethylamino)methyl)-4-hydroxy-4-(3-methoxyphenyl)piperidin-1-yl)(1-phenylcyclopropyl)methanone hydrochloride] |  |  |  |  | 29.85 |  |  | Ki (κ opioid receptor; Table 5-1): 33.9 ± 0.92 nM; Ki (δ opioid receptor; Table 5-1): 848 ± 529 nM; Ki (μ opioid receptor; Table 5-1): 67.15 ± 0.08 nM |
